pEC50, pIC50: −log10 of the molar value.
Columns and labels:
[1] = target: Replicase polyprotein 1ab (Severe acute respiratory syndrome coronavirus 2, UniProt P0DTD1); test: Inhibition of wild type recombinant SARS-CoV-2 3CLpro (1 to 306 residues) expressed in Escherichia coli (DE3) competent cells using CP488-ESATLQSGLRKAK-(CPQ2)-NH2 as substrate preincubated for 30 mins followed by substrate addition and measured after 4 hrs by FRET assay
[2] = MRT in dog at 3 mg/kg, po or 1 mg/kg, iv measured upto 24 hrs by LC-MS analysis; type: ADME, organism-based, Canis lupus familiaris; details: in vivo
[3] = Oral bioavailability in rat at 3 mg/kg measured upto 24 hrs by LC-MS analysis; type: ADME, organism-based; details: in vivo
[4] = Oral bioavailability in Wistar-Han rat at 2 mg/kg; type: ADME, organism-based; details: in vivo
[5] = target: T1, Nuclear receptor subfamily 1 group I member 2 (Homo sapiens, UniProt O75469); test: Activation of PXR (unknown origin); type: toxicity
T1 sequence (O75469 whole entry): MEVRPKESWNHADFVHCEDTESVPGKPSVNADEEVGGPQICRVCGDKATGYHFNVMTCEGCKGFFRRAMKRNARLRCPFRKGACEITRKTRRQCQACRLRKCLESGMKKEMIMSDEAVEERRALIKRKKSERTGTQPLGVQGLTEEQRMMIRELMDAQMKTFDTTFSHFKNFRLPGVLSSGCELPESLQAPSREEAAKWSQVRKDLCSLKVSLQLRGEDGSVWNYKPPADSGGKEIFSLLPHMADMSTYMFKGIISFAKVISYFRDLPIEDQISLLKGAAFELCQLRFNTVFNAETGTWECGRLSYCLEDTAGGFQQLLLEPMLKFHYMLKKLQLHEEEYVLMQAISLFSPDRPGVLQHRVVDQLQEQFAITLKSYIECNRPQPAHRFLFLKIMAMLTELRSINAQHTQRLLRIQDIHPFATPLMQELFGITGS

[6] = target: CYP3A4 (Homo sapiens, UniProt P08684); test: Ratio of IC50 for time dependent inhibition of CYP3A4 in human liver microsomes incubated for 30 mins in presence of NADPH to IC50 for time dependent inhibition of CYP3A4 in human liver microsomes incubated for 30 mins in absence of NADPH; set-up: species or system Microsome; details: read-out: Ratio IC50
[7] = Apparent permeability in MDCK cells; type: ADME, cell-based, Canis lupus familiaris; details: dog
[8] = Oral bioavailability in rat; type: ADME, organism-based; details: in vivo

Sequence of CYP3A4 (P08684 whole entry): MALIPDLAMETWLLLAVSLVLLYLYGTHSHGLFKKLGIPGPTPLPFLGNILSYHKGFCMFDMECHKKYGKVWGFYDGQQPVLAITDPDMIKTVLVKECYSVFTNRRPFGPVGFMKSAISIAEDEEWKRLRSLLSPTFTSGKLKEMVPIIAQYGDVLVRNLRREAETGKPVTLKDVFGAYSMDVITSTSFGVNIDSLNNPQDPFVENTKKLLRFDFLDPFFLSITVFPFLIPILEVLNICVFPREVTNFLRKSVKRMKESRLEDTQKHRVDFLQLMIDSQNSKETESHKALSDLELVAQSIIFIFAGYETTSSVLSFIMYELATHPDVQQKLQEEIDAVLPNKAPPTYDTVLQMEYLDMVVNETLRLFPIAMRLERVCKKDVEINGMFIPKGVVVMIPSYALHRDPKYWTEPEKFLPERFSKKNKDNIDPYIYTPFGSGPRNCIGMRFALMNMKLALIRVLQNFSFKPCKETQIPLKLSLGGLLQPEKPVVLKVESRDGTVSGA

In the case of COC(=O)N[C@H](C(=O)N1C[C@@H]2CCC[C@@H]2[C@H]1C(=O)N[C@@H](CC[C@H](C)F)C(=O)C(=O)NC1CC1)C(C)(C)C, the pIC50 [1] was 7.64.
Work on COC(=O)N[C@H](C(=O)N1C[C@@H]2CCC[C@@H]2[C@H]1C(=O)N[C@@H](CCC(C)(F)F)C(=O)C(=O)NC1CC1)C(C)(C)C yielded an MRT [2] of 2.7 h and a bioavailability [3] of 47%.
In the case of COc1cccc2[nH]c(C(=O)N[C@@H](CC(C)C)C(=O)N[C@@H](C[C@@H]3CCNC3=O)C(=O)CO)cc12 [PF-00835231], the bioavailability [4] was under 2%.
With COC(=O)N[C@H](C(=O)N1CC2(CCCCC2)C[C@H]1C(=O)N[C@@H](CCC(C)(F)F)C(=O)C(=O)NC1CC1)C(C)(C)C the pEC50 [5] was 5.17, the MRT [2] was 0.8 h and the pIC50 [1] was 7.96. For the same molecule, the IC50 shift at 0.5 h [6] was over 1.3 and the bioavailability [3] was 26%.
For COC(=O)N[C@H](C(=O)N1CC[C@@H](C(F)(F)F)C[C@H]1C(=O)N[C@@H](CCC(C)(F)F)C(=O)C(=O)NC1CC1)C(C)(C)C, the MRT [2] was 8.6 h and the bioavailability [3] was 40%.
CNC(=O)C(=O)[C@H](CCC(C)(F)F)NC(=O)[C@@H]1C[C@H](C(F)(F)F)CCN1C(=O)[C@@H](NC(=O)OC)C(C)(C)C showed an MRT [2] of 3.1 h and a bioavailability [3] of 63%.
For CNC(=O)C(=O)[C@H](CCC(C)(F)F)NC(=O)[C@@H]1CC2(CCCCC2)CN1C(=O)[C@@H](NC(=O)OC)C(C)(C)C, the pEC50 [5] was 5.24 and the IC50 shift at 0.5 h [6] was over 1.6.
COC(=O)N[C@H](C(=O)N1C[C@@H]2CCC[C@@H]2[C@H]1C(=O)N[C@@H](CC[C@@H](C)F)C(=O)C(=O)NC1CC1)C(C)(C)C gave a pIC50 [1] of 7.96.
In the case of COC(=O)N[C@H](C(=O)N1CC2(CCCCC2)C[C@H]1C(=O)N[C@@H](CCC(F)(F)F)C(=O)C(=O)NC1CC1)C(C)(C)C, the pIC50 [1] was 6.42.
Molecule COC(=O)N[C@H](C(=O)N1CC2(CCCCC2)C[C@H]1C(=O)N[C@@H](CCC(C)(F)F)C(=O)C(=O)NC1CCCCC1)C(C)(C)C has a pEC50 [5] of 5.64, a pIC50 [1] of 7.11 and an IC50 shift at 0.5 h [6] of over 6.
For COC(=O)N[C@H](C(=O)N1CC2(CCOCC2)C[C@H]1C(=O)N[C@@H](CCC(C)(F)F)C(=O)C(=O)NC1CC1)C(C)(C)C, the pIC50 [1] was 6.53.
For CC(F)(F)CC[C@H](NC(=O)[C@@H]1CC2(CCCCC2)CN1C(=O)C(O)c1cccc(F)c1)C(=O)C(=O)NC1CC1 (stereo partly drawn), the pIC50 [1] was 7.25.
CC(C)(C)CC(=O)N1CC2(CCCCC2)C[C@H]1C(=O)N[C@@H](CCC(C)(F)F)C(=O)C(=O)NC1CC1 gave a pIC50 [1] of 6.05.
For COC(=O)N[C@H](C(=O)N1CC2(CCC(F)(F)CC2)C[C@H]1C(=O)N[C@@H](CCC(C)(F)F)C(=O)C(=O)NC1CC1)C(C)(C)C, the pIC50 [1] was 6.57.
With CC(F)(F)CC[C@H](NC(=O)[C@@H]1CC2(CCCCC2)CN1C(=O)[C@@H](NC(=O)OCc1ccccc1)C1CCCCC1)C(=O)C(=O)NC1CC1 the pIC50 [1] was 7.80.
Molecule CC(F)(F)CC[C@H](NC(=O)[C@@H]1[C@@H]2[C@H](CN1C(=O)[C@@H](NC(=O)NC1(CS(=O)(=O)C(C)(C)C)CCCCC1)C(C)(C)C)C2(C)C)C(=O)C(=O)NC1CC1 has a pIC50 [1] of 6.89.
For CC(F)(F)CC[C@H](NC(=O)[C@@H]1CC2(CCCCC2)CN1C(=O)c1cc2ccccc2[nH]1)C(=O)C(=O)NC1CC1, the pIC50 [1] was 7.19.
With COC(=O)N[C@H](C(=O)N1CCC2(CC2)C[C@H]1C(=O)N[C@@H](CCC(C)(F)F)C(=O)C(=O)NC1CC1)C(C)(C)C the MRT [2] was 3.6 h, the Papp [7] was 16 ×10⁻⁶ cm/s and the bioavailability [3] was 60%.
COC(=O)N[C@H](C(=O)N1CC2(C[C@H]1C(=O)N[C@@H](CCC(C)(F)F)C(=O)C(=O)NC1CC1)CC2(F)F)C(C)(C)C (stereo partly drawn) showed an MRT [2] of 3.2 h.
With COC(=O)N[C@H](C(=O)N1CC2(CCCCC2)C[C@H]1C(=O)N[C@@H](CC1CC1(F)F)C(=O)C(=O)NC1CC1)C(C)(C)C (stereo partly drawn) the pIC50 [1] was 6.45.
COC(=O)N[C@H](C(=O)N1C[C@@H]2CCC[C@@H]2[C@H]1C(=O)N[C@@H](CCC(C)(C)F)C(=O)C(=O)NC1CC1)C(C)(C)C showed a pIC50 [1] of 7.59.
For CCCC[C@H](NC(=O)[C@@H]1CC2(CCCCC2)CN1C(=O)[C@@H](NC(=O)OC)C(C)(C)C)C(=O)C(=O)NC1CC1, the pIC50 [1] was 6.15.
COC(=O)N[C@H](C(=O)N1CC2(CCCCC2)C[C@H]1C(=O)N[C@@H](CCC(C)(F)F)C(=O)C(=O)NCc1ccncc1)C(C)(C)C showed a pEC50 [5] of under 4.52, a pIC50 [1] of 7.52 and an IC50 shift at 0.5 h [6] of about 1.
COC(=O)N[C@H](C(=O)N1C[C@H]2[C@@H]([C@H]1C(=O)N[C@@H](CCC(C)(F)F)C(=O)C(=O)NC1CC1)C21CCOCC1)C(C)(C)C gave an MRT [2] of 2.4 h and a bioavailability [3] of 40%.
In the case of COC(=O)N[C@H](C(=O)N1CC2(CCCCC2)C[C@H]1C(=O)N[C@@H](CCC(C)(F)F)C(=O)C(N)=O)C(C)(C)C, the pEC50 [5] was under 4.52, the pIC50 [1] was 7.60 and the IC50 shift at 0.5 h [6] was over 1.
COC(=O)N[C@H](C(=O)N1CC2(CCCCC2)C[C@H]1C(=O)N[C@@H](CCC(C)(F)F)C(=O)C(=O)NCc1ccccc1)C(C)(C)C gave a pEC50 [5] of 5.41 and an IC50 shift at 0.5 h [6] of over 3.1.
For COC(=O)N[C@H](C(=O)N1CC2(CCCCC2)C[C@H]1C(=O)N[C@@H](CCC(F)F)C(=O)C(=O)NC1CC1)C(C)(C)C, the pIC50 [1] was 6.91.
Molecule CC(C)(C)NC(=O)N[C@H](C(=O)N1C[C@H]2[C@@H]([C@H]1C(=O)N[C@@H](C[C@@H]1CCNC1=O)C(=O)C(N)=O)C2(C)C)C(C)(C)C has a bioavailability [8] of 0.2% and a Papp [7] of under 1.13 ×10⁻⁶ cm/s.
In the case of CC(C)C[C@H](NC(=O)OCc1ccccc1)C(=O)N[C@@H](C[C@@H]1CCNC1=O)C(O)S(=O)(=O)[O-].[Na+] (stereo partly drawn), the bioavailability [8] was 3%.
